Test results from patent US6602906B1 (priority 2002, dated 2003).
Read-outs that look alike come from different tables or passages of the source.

Experiments:
[1] = Storage stability of the 5.0 wt % topical solution; assay type: physicochemical
Method: For topical use, a homogeneous solution in accordance with the present invention containing 5.0 wt % 5,6-O-isopropylidene L-ascorbic acid was prepared by mixing the ingredients shown in TABLE 1. The ingredients were added in the order given and in the given amounts. The solution was prepared in a glass container with continuous stirring. After the addition of the zinc sulfate, and again after the addition of the glycerin, the solution was heated to approximately 60° C. The heating increased the solubility of the 2-phenoxyethanol and of the 5,6-O-isopropylidene L-ascorbic acid. The solution was then filtered through a fine plastic mesh, yielding a clear, colorless to very pale yellow liquid. The 5,6-O-isopropylidene L-ascorbic acid in this solution will retain its potency for approximately six months if the solution is stored at room temperature in a bottle that is impervious to ultraviolet light. In darkness at 10° C., 5,6-O-isopropylidene L-ascorbic acid in solution will remain stable and potent for approximately 18 months.

inflamed skin = inflamed skin treated with acetone; cited from earlier work
[2] = in the human; cited from earlier work
mouse skin = settings: topical application, (hairless) mice; cited from earlier work
skin of humans = settings: topical application; cited from earlier work
pig skin = settings: applied topically prior to UVB; cited from earlier work
human skin = settings: applied topically prior to UVB; cited from earlier work
[3] = neutral pH; cited from earlier work
[4] = 20 wt %, pH 2.0; cited from earlier work
mice = settings: topical; cited from earlier work
[5] = cited from earlier work

CC1(C)OC[C@@H]([C@H]2OC(=O)C(O)=C2O)O1 [5,6-O-isopropylidene L-ascorbic acid]
time the compound in solution retains its potency ([1]; 5.0 wt % solution of TABLE 1, room temperature, bottle impervious to ultraviolet light): approximately six | time the compound in solution remains stable and potent ([1]; solution, in darkness at 10° C.): approximately 18 months

CC(C)=O [acetone]
erythema and edema (inflamed skin): diminished | presence of mononuclear cells (indicator of inflammation) (inflamed skin): significant decrease

O=C1O[C@H]([C@@H](O)CO)C(O)=C1O [ascorbic acid]
half-life [2]: about 20 days | photoaging changes / protection against photoaging in mouse skin (mouse skin): decreased | photoaging changes in the skin (skin of humans): decreased | erythema and sunburn after UVB irradiation (pig skin): erythema and sunburn were prevented | erythema and sunburn after UVB irradiation (human skin): erythema and sunburn were prevented | stability in aqueous solutions [3]: very unstable | skin irritation [4]: highly irritating to the skin | protection against UV-induced immunosuppression and tolerance to contact antigen (mice): protect against UV-induced immunosuppression | pKa (pKa of the molecule): […]

CCCCCCCCCCCCCCCC(=O)OC[C@H](O)[C@H]1OC(=O)C(O)=C1O [ascorbyl-6-palmitate, Ascorbyl-6-palmitate]
skin levels of ascorbic acid ([5]; topical serum containing 10 wt %): no significant increase | photoaging changes / protection against photoaging in mouse skin (mouse skin): failed to demonstrate protection against photoaging

O=C1O[C@H]([C@@H](O)CO)C([O-])=C1OP(=O)([O-])[O-].O=C1O[C@H]([C@@H](O)CO)C([O-])=C1OP(=O)([O-])[O-].[Mg+2].[Mg+2].[Mg+2] [magnesium ascorbyl 2-phosphate]
skin levels of ascorbic acid ([5]; topical serum containing 13 wt %): failed to increase skin levels of ascorbic acid
